According to paper PMC8791477, “Evaluation of SARS-CoV-2 entry, inflammation and new therapeutics in human lung tissue cells” (PLoS Pathogens, 2022):

Columns and labels:
in vitro [1] = conditions: African green monkey, CC50 Vero E6, absence of virus
[2] = test system: DNA-dependent DNA polymerases of some DNA viruses; conditions: cited from earlier work
in vitro [3] = conditions: human, CC50 HLT, absence of virus

Nc1ncnc2c1ncn2[C@@H]1O[C@H](CO)[C@@H](O)[C@@H]1O [Vidarabine]
CC50 (in vitro [1]): > 100 µM
inhibition of viral DNA polymerases relative to those of host cells [2]: Purine nucleoside analogue ^80. Competitively inhibits DNA-dependent DNA polymerases of some DNA viruses approximately 40 times more than those of host cells ^80.
CC50 (in vitro [3]): > 100 µM
